Reference: patent US5707990A, “2-substituted amino and thio alkyl benzoxazine antimicrobial agents” (Ortho Pharmaceutical Corporation, priority 1996, dated 1998)

Target: T1, Kinase A and SpoOF (Bacillus subtilis, UniProt P16497)
T1 construct: made in house; host or cells: recombinant E. coli
T1 sequence (P16497 1-606): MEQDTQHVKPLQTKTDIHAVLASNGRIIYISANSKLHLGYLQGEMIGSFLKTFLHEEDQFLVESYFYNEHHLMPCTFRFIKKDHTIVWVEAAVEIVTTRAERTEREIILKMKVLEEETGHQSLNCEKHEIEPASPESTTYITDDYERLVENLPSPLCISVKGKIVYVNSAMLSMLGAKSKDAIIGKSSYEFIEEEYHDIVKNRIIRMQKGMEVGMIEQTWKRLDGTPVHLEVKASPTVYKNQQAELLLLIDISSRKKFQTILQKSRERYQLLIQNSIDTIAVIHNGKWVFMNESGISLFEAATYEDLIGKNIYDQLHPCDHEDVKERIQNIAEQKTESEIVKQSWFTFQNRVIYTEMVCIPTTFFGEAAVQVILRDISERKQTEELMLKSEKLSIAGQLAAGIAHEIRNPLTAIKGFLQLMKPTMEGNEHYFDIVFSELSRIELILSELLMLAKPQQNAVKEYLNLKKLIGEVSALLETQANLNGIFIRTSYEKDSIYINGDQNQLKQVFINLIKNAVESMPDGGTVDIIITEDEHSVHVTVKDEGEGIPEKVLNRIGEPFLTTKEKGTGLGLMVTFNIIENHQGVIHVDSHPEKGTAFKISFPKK
Assay: Autophosphorylation of Kinase A and Transphosphorylation of SpoOF Assay (HPK in vitro assay)
Format: biochemical
Details: [32P]ATP, gel/phosphoimager, inhibitor concentrations from 1 to 500 μM, IC50 of less than 1000 μM considered active
Description: Autophosphorylation of Kinase A and Transphosphorylation of SpoOF Assay
To study the effect of the compounds of the present invention on the signal transduction process in bacteria, the inhibiting effect of the compounds on the sporulation operon proteins Kinase A and SpoOF was examined. Specifically, the inhibition of autophosphorylation of Kinase A and the transphosphorylation of SpoOF was determined in the following assays. The SpoOF response regulator is the primary substrate for phosphorylation by the protein kinase, Kin A, involved in the sporulation process in bacteria. See D. Burbulys, K. A. Trach, J. A. Hoch, Cell, 64, 545-552 (1991 ). SpoOF and KinA were prepared from recombinant E. coli overexpressing the proteins (J. Cavanagh et al, Amino Adds, 6, 131-140 (1994) and references therein).
The following stock reagents were either prepared and used promptly or stored at the indicated temperature:
8 X Salts: 2M KCl (5 mL), 1M MgCl2 ([…]), 1M CaCl2 ([…]), 10 mg/mL phenylmethylsulfonyl fluoride ([…]), 1M dithioreitol (50 mL), 0.25M Na2 EDTA (32 mL) and H2 O 3.82 mL (-20° C.)
5X Loading Dye: 0.5M TRIS-HCl-pH 6.8 (7.5 mL), 10% SDS (2 mL) 0.1% bromophenol blue (0.5 mL), 100% glycerol (3 mL) and 12.5M 2-mercaptoethanol (0.3 mL)
1-1.3 mg/mL KinA: 15 mM TRIS-HCl, pH 8.0, 6 mM KCl; 4 mM 2-mercaptoethanol;40% glycerol (-20° C.)
1 mg/mL SpoOF: 17.5 mM TRIS-HCl, pH 8.0; 0.7 mM KCl; 0.7 mM MgCl2; 0.7 mM CaCl2; 5 mM 2-mercaptoethanol; 30% Glycerol (-20° C.)
5% Stacking Gel: 40% 29:1 acrylamide:bis acrylamide (1.25 mL), 0.5M TRIS-HCl, pH 6.8 (2.5 mL), 10% SDS (0.1 mL), D-H2 O (6.15 mL) 10% ammonium persulfate (100 mL) and TEMED (25 mL)
SDS Running Buffer: TRIS-BASE (3.02 g), glycine (14.4 g) SDS (1 g), D-H2 O (to 1 L)
The reaction mixture was prepared from 8X Salts (87 μL), 1M TRIS, pH 8 (118 μL), 50% glycerol (63 μL), SpoOF (14.1 μL) and KinA (7.0 μL). Microcentrifuge tubes were charged with the reaction mixture (18.5 μL) and a 1.0 mM solution of the test compound in 5% DMSO (18.5 μL), and incubated for 15 min on ice. 100 mM ATP solution (3.0 μl, containing 625 μCi [^32 P]ATP) was added, and the mixture left for 10 minutes at room temperature. The reaction was quenched with 5X loading dye (10 μL per tube) and the samples were loaded on a prepared 5% Stacking Gel, or stored on dry ice until ready for use. The prepared wells were filled with SDS Running Buffer, samples were loaded into the wells, and 80 volts were applied to the gel until the dye front reached the bottom of the stacking gel. The voltage was then increased to 250 volts until electrophoresis was complete. Radioactive bands in the gel corresponding to phosphorylated KinA and SpoOF were imaged and quantitated with a phosphoimager.
If either enzyme was inhibited (as evidenced by the absence of labelled protein in the developed gel), an IC50 was calculated by running the assay with a range of inhibitor concentrations from 1 to 500 μM. After electrophoresis of the reaction mixtures, percent inhibition was determined by measuring the concentration of radioactive phosphorus with a phosphoimager and calculating the values using a software program (BioRad Molecular Analyst). IC50 values of less than 1000 μM are considered active.

Structure (SMILES) | IC50 [µM]
N=C(N)NCCC1Oc2ccc(C(F)(F)F)cc2N(Cc2cccc(Cl)c2)C1=O (stereo not drawn) [Example 18] | 80
N=C(N)NCCC1Oc2cccnc2N(Cc2cccc(Cl)c2)C1=O (stereo not drawn) [Example 20] | 344
N=C(N)NCCC1Oc2cc([N+](=O)[O-])ccc2N(Cc2cccc(Cl)c2)C1=O (stereo not drawn) [Example 23] | 182

Continued, values first:

IC50 [µM] | Structure (SMILES)
52 | Cc1ccc2c(c1)N(Cc1cccc(Cl)c1)C(=O)C(CCNC(=N)N)O2 (stereo not drawn) [Example 19]
325 | N=C(N)NCCC1Oc2ccccc2N(Cc2ccccc2Cl)C1=O (stereo not drawn) [Example 22]
274 | O=C1C(CCSC(=S)N2CCCC2)Oc2ccccc2N1Cc1ccccc1Cl (stereo not drawn) [Example 25]
